As a reminder, the MIC is the least concentration at which growth counts as inhibited. The low end stands for greater potency, the high end for weaker potency.

Here are results for seven molecules from ChEMBL document CHEMBL2380238, “Synthesis, spectral and antimicrobial evaluation of some novel 1-methyl-3-alkyl-2,6-diphenylpiperidin-4-one oxime carbonates” (2013).

≈ marks a conversion by molar mass, not a printed value. Calls of active or inactive are those of the source. The rule behind the calls is not given here.

Common to all, as to format: functional
The subject of assay [1] is Bacillus subtilis. Briefly: Antibacterial activity against Bacillus subtilis.
The test system of assay [2] is Penicillium. As to the kind of experiment: Antifungal activity against Penicillium.
Assay [3] deals with Aspergillus niger. As to the kind of experiment: Antifungal activity against Aspergillus niger after 72 to 96 hrs by broth dilution method. On the technique in general: Dilution methods test growth across graded concentrations, often in twofold steps.
Assay [4] relates to Enterococcus faecalis. Briefly: Antibacterial activity against Streptococcus faecalis.
For assay [5], the system named is Rhizopus. Briefly: Antifungal activity against Rhizopus after 72 to 96 hrs by broth dilution method.
Assay [6] relates to Aspergillus flavus. As to the kind of experiment: Antifungal activity against Aspergillus flavus.
Assay [7] has as its system Klebsiella pneumoniae. Briefly: Antibacterial activity against Klebsiella pneumoniae after 24 hrs by broth dilution method.
Assay [8] concerns Escherichia coli. Briefly: Antibacterial activity against Escherichia coli.
In assay [9] the test system is Rhizopus. Briefly: Antifungal activity against Rhizopus.
In assay [10] the test system is Aspergillus flavus. Briefly: Antifungal activity against Aspergillus flavus after 72 to 96 hrs by broth dilution method.
In assay [11] the test system is Pseudomonas aeruginosa. Briefly: Antibacterial activity against Pseudomonas aeruginosa.
The test system of assay [12] is Fusarium. As to the kind of experiment: Antifungal activity against Fusarium after 72 to 96 hrs by broth dilution method.
Assay [13] deals with Penicillium. As to the kind of experiment: Antifungal activity against Penicillium after 72 to 96 hrs by broth dilution method.
Assay [14] has as its system Escherichia coli. As to the kind of experiment: Antibacterial activity against Escherichia coli after 24 hrs by broth dilution method.
In assay [15] the test system is Fusarium. As to the kind of experiment: Antifungal activity against Fusarium.
The subject of assay [16] is Enterococcus faecalis. Briefly: Antibacterial activity against Streptococcus faecalis after 24 hrs by broth dilution method.
Assay [17] relates to Klebsiella pneumoniae. Briefly: Antibacterial activity against Klebsiella pneumoniae.
The subject of assay [18] is Bacillus subtilis. As to the kind of experiment: Antibacterial activity against Bacillus subtilis after 24 hrs by broth dilution method.
The test system of assay [19] is Pseudomonas aeruginosa. Briefly: Antibacterial activity against Pseudomonas aeruginosa after 24 hrs by broth dilution method.
The subject of assay [20] is Aspergillus niger. As to the kind of experiment: Antifungal activity against Aspergillus niger.

As for `CCC1/C(=N/OC(=O)OC)CC(c2ccccc2)N(C)C1c1ccccc1` (stereo not given), the “inhibition zone (IZ)” value with Bacillus subtilis [1], in the assay on Enterococcus faecalis [4], with Escherichia coli [8] and with Rhizopus [9] was 12 mm in each case. In addition, the “inhibition zone (IZ)” value in the assay on Penicillium [2], in the assay with Aspergillus flavus [6], in the assay on Pseudomonas aeruginosa [11], in the assay with Fusarium [15], in the assay with Klebsiella pneumoniae [17] and in the assay with Aspergillus niger [20] was “inactive” each time. In addition, the minimum inhibitory concentration (MIC) against Aspergillus niger [3] was 200 µg/mL (≈ 546 µM); in the assay with Rhizopus [5] it was 100 µg/mL (≈ 273 µM); against Klebsiella pneumoniae [7], 200 µg/mL (≈ 546 µM); in the assay on Aspergillus flavus [10] it was 200 µg/mL (≈ 546 µM); with Fusarium [12], 200 µg/mL (≈ 546 µM); against Penicillium [13] it was 200 µg/mL (≈ 546 µM). The MIC in the assay on Escherichia coli [14] was 25 µg/mL (≈ 68.2 µM); in the assay with Enterococcus faecalis [16], 100 µg/mL (≈ 273 µM); against Bacillus subtilis [18], 25 µg/mL (≈ 68.2 µM); in the assay on Pseudomonas aeruginosa [19], 200 µg/mL (≈ 546 µM).
Turning to `CCC1/C(=N/OC(=O)OC(C)Cl)CC(c2ccccc2)N(C)C1c1ccccc1` (stereo not given), the “inhibition zone (IZ)” value with Bacillus subtilis [1] came to 17 mm; in the assay on Penicillium [2], 17 mm; in the assay on Enterococcus faecalis [4] it was 22 mm; with Aspergillus flavus [6] it was 17 mm; with Escherichia coli [8] it was 22 mm; in the assay on Rhizopus [9] it was 17 mm. The “inhibition zone (IZ)” value with Pseudomonas aeruginosa [11] is on record as 22 mm; in the assay on Fusarium [15] it was 22 mm; with Klebsiella pneumoniae [17] it was 32 mm; in the assay on Aspergillus niger [20], 17 mm. The MIC in the assay on Aspergillus niger [3] was found to be 25 µg/mL (≈ 60.3 µM); in the assay on Rhizopus [5] it was 25 µg/mL (≈ 60.3 µM); against Klebsiella pneumoniae [7] it was 6.25 µg/mL (≈ 15.1 µM); with Aspergillus flavus [10] it was 25 µg/mL (≈ 60.3 µM); against Fusarium [12], 12.5 µg/mL (≈ 30.1 µM); with Penicillium [13], 25 µg/mL (≈ 60.3 µM). In addition, the minimal inhibitory concentration (MIC) against Escherichia coli [14] is 12.5 µg/mL (≈ 30.1 µM); with Enterococcus faecalis [16], 12.5 µg/mL (≈ 30.1 µM); against Bacillus subtilis [18], 25 µg/mL (≈ 60.3 µM); against Pseudomonas aeruginosa [19], 12.5 µg/mL (≈ 30.1 µM).
As to `CC(Cl)OC(=O)O/N=C1\CC(c2ccccc2)N(C)C(c2ccccc2)C1C` (stereo not given), the “inhibition zone (IZ)” value is 17 mm in the assay on Bacillus subtilis [1]; 17 mm in the assay with Penicillium [2]; 22 mm in the assay on Enterococcus faecalis [4]; 17 mm with Aspergillus flavus [6]; 22 mm with Escherichia coli [8]; 17 mm with Rhizopus [9]. Besides, the “inhibition zone (IZ)” value with Pseudomonas aeruginosa [11] was found to be 22 mm; in the assay with Fusarium [15], 17 mm; with Klebsiella pneumoniae [17] it was 22 mm; in the assay on Aspergillus niger [20], 17 mm. Also, the minimum inhibitory concentration (MIC) in the assay with Aspergillus niger [3] is 50 µg/mL (≈ 125 µM); in the assay on Rhizopus [5] it was 25 µg/mL (≈ 62.4 µM); against Klebsiella pneumoniae [7], 12.5 µg/mL (≈ 31.2 µM); in the assay with Aspergillus flavus [10], 50 µg/mL (≈ 125 µM); against Fusarium [12], 25 µg/mL (≈ 62.4 µM); against Penicillium [13] it was 25 µg/mL (≈ 62.4 µM). For the same molecule, the MIC came to 12.5 µg/mL (≈ 31.2 µM) in the assay on Escherichia coli [14], 12.5 µg/mL (≈ 31.2 µM) against Enterococcus faecalis [16], 50 µg/mL (≈ 125 µM) in the assay on Bacillus subtilis [18] and 25 µg/mL (≈ 62.4 µM) against Pseudomonas aeruginosa [19].
Consider `CCC1/C(=N/O)CC(c2ccccc2)N(C)C1c1ccccc1` (stereo not given), for which the “inhibition zone (IZ)” value with Bacillus subtilis [1], in the assay on Enterococcus faecalis [4], with Escherichia coli [8] and with Rhizopus [9] was 12 mm in each case. Besides, the “inhibition zone (IZ)” value with Penicillium [2], in the assay with Aspergillus flavus [6], in the assay with Pseudomonas aeruginosa [11], in the assay with Fusarium [15], in the assay on Klebsiella pneumoniae [17] and in the assay with Aspergillus niger [20] was “inactive” in each case. Besides, the MIC in the assay on Aspergillus niger [3] was 200 µg/mL (≈ 648 µM); against Rhizopus [5], 100 µg/mL (≈ 324 µM); in the assay on Klebsiella pneumoniae [7] it was 200 µg/mL (≈ 648 µM); with Aspergillus flavus [10], 200 µg/mL (≈ 648 µM); with Fusarium [12], 200 µg/mL (≈ 648 µM); in the assay with Penicillium [13], 200 µg/mL (≈ 648 µM). In addition, the MIC amounted to 50 µg/mL (≈ 162 µM) against Escherichia coli [14], 200 µg/mL (≈ 648 µM) in the assay on Enterococcus faecalis [16], 50 µg/mL (≈ 162 µM) in the assay on Bacillus subtilis [18] and 200 µg/mL (≈ 648 µM) against Pseudomonas aeruginosa [19].
In the case of `COC(=O)O/N=C1\CC(c2ccccc2)N(C)C(c2ccccc2)C1C` (stereo not given), the “inhibition zone (IZ)” value in the assay on Bacillus subtilis [1], in the assay with Aspergillus flavus [6] and in the assay on Escherichia coli [8] was 12 mm each time. Moreover, the “inhibition zone (IZ)” value in the assay with Penicillium [2], in the assay on Enterococcus faecalis [4], in the assay with Rhizopus [9], in the assay with Pseudomonas aeruginosa [11], in the assay with Fusarium [15] and with Klebsiella pneumoniae [17] was “inactive” in each case. In the assay on Aspergillus niger [20], the “inhibition zone (IZ)” value was “inactive”. Further, the MIC against Aspergillus niger [3] came out at 200 µg/mL (≈ 567 µM); against Rhizopus [5] it was 200 µg/mL (≈ 567 µM); in the assay with Klebsiella pneumoniae [7], 200 µg/mL (≈ 567 µM); with Aspergillus flavus [10] it was 100 µg/mL (≈ 284 µM); in the assay with Fusarium [12], 200 µg/mL (≈ 567 µM); against Penicillium [13], 200 µg/mL (≈ 567 µM). In addition, the MIC was determined as 50 µg/mL (≈ 142 µM) against Escherichia coli [14], 200 µg/mL (≈ 567 µM) with Enterococcus faecalis [16], 50 µg/mL (≈ 142 µM) against Bacillus subtilis [18] and 200 µg/mL (≈ 567 µM) in the assay with Pseudomonas aeruginosa [19].
Take `CCOC(=O)O/N=C1\CC(c2ccccc2)N(C)C(c2ccccc2)C1C(C)C` (stereo not given): the “inhibition zone (IZ)” value amounted to 12 mm in the assay on Bacillus subtilis [1], 12 mm with Enterococcus faecalis [4], 12 mm in the assay on Aspergillus flavus [6] and 17 mm with Escherichia coli [8]. Besides, the “inhibition zone (IZ)” value with Penicillium [2], in the assay with Rhizopus [9], in the assay on Pseudomonas aeruginosa [11], in the assay on Fusarium [15], in the assay with Klebsiella pneumoniae [17] and with Aspergillus niger [20] was “inactive” each time. The minimal inhibitory concentration (MIC) in the assay on Aspergillus niger [3] came to 200 µg/mL (≈ 507 µM); against Rhizopus [5] it was 200 µg/mL (≈ 507 µM); in the assay on Klebsiella pneumoniae [7], 200 µg/mL (≈ 507 µM); in the assay on Aspergillus flavus [10], 100 µg/mL (≈ 253 µM); with Fusarium [12] it was 200 µg/mL (≈ 507 µM); in the assay with Penicillium [13] it was 200 µg/mL (≈ 507 µM). In addition, the MIC in the assay on Escherichia coli [14] came to 12.5 µg/mL (≈ 31.7 µM); against Enterococcus faecalis [16] it was 50 µg/mL (≈ 127 µM); in the assay with Bacillus subtilis [18], 12.5 µg/mL (≈ 31.7 µM); in the assay on Pseudomonas aeruginosa [19], 200 µg/mL (≈ 507 µM).
Take `CCOC(=O)O/N=C1\CC(c2ccccc2)N(C)C(c2ccccc2)C1C` (stereo not given): the “inhibition zone (IZ)” value in the assay on Bacillus subtilis [1], with Aspergillus flavus [6] and with Escherichia coli [8] was 12 mm in each case. The “inhibition zone (IZ)” value in the assay on Penicillium [2], in the assay on Enterococcus faecalis [4], with Rhizopus [9], in the assay with Pseudomonas aeruginosa [11], with Fusarium [15] and in the assay on Klebsiella pneumoniae [17] was “inactive” in each case. Also, the “inhibition zone (IZ)” value with Aspergillus niger [20] is “inactive”. For the same molecule, the minimal inhibitory concentration (MIC) in the assay with Aspergillus niger [3] worked out at 200 µg/mL (≈ 546 µM); with Rhizopus [5] it was 200 µg/mL (≈ 546 µM); in the assay on Klebsiella pneumoniae [7] it was 200 µg/mL (≈ 546 µM); in the assay on Aspergillus flavus [10] it was 100 µg/mL (≈ 273 µM); in the assay on Fusarium [12], 200 µg/mL (≈ 546 µM); against Penicillium [13], 200 µg/mL (≈ 546 µM). The minimum inhibitory concentration (MIC) was found to be 50 µg/mL (≈ 136 µM) in the assay with Escherichia coli [14], 200 µg/mL (≈ 546 µM) against Enterococcus faecalis [16], 50 µg/mL (≈ 136 µM) against Bacillus subtilis [18] and 200 µg/mL (≈ 546 µM) against Pseudomonas aeruginosa [19].
